Drawing on PubChem BioAssay AID1963827 (Molecular Pharmacology Branch, DTP, NCI, 2024), this text covers viability, T/C and IC50 for 6 compounds.

In the test the test system is 994946-033-R-J1-PDC complex spheroid viability. The experiment in a line: Anticancer human tumor 994946-033-R-J1-PDC patient-derived melanoma cell line growth inhibition [POLQ]. The following applies: for viability, T/C: stronger effect = lower value. Here is the method: Multicellular complex tumor spheroid response to Polymerase (POL) inhibitors (novobiocin, ART-558, RP6685) in combination with a variety of drugs and investigational agents in selected tumor cell lines
The POL inhibitors (novobiocin, ART-558, and RP6685) were evaluated both individually and in combination with standard of care and investigational anticancer small molecules within a complex spheroid model of solid tumors. . Complex spheroids include a stromal component modeled by human endothelial cells (HUVEC) and fibroblasts modeled by human mesenchymal stem cells (MSCs). The concentration ranges selected for each drug and investigational agent were based upon clinically achievable concentrations if the clinical Cmax of the agent was known.
Compounds. The drugs and investigational agents: novobiocin (NSC847541), ART-558 (NSC835418), RP-6685 (NSC848927), peposertib (NSC802822), ceralasertib (NSC780249), elimusertib (NSC800525), camonsertib (NSC841442), AZD-1390 (NSC803789), olaparib (NSC753686), talazoparib (NSC767125), rucaparib (NSC756644), sotorasib (NSC818433), MRTX-1133 (NSC836407), SN-38 (NSC673596), topotecan (NSC609699), epotoside (NSC141540), doxorubicin (NSC123127), gemcitabine (NSC613327), 5-fluorouracil (NSC19893), paclitaxel (NSC125973), vemurafenib (NSC761431), MSA-2 (NSC828583), SN-011 (NSC837082), adavosertib (NSC754352), prexasertib (NSC758257), carboplatin (NSC241240) and oxaliplatin (NSC266046), were obtained from the National Cancer Institute (NCI) Developmental Therapeutics Program Chemical Repository (21). The FDA-approved anticancer drug set is available from the Developmental Therapeutics Program at https://dtp.cancer.gov/organization/dscb/obtaining/. […] The stock solutions were prepared in dimethyl sulfoxide (DMSO, Sigma-Aldrich, St. Louis, MO, cat. D2650), except for the platinum compounds which were prepared in saline (Quality Biological, Gaithersburg, MD, cat. 114-055-101), at 800-fold the tested concentration and stored at -70 degrees C prior to their use. All drugs and investigational agents were tested over a range starting from a high concentration at or near the clinical Cmax and decreasing in half-log increments. If the clinical Cmax for an agent had not been determined, the highest concentration tested was 10 microM, except for SN-38, which was tested at a high concentration of 1 microM.
Cell Culture. All cells were maintained in an incubator at 37 degrees C and 5% CO2 with 95% humidity. The PDC lines were cultured according to standard operating procedures established by the NCI PDMR (https://pdmr.cancer.gov). Table 3 of the manuscript, lists the cell lines along with the number of the three cell types plated to form the mct-spheroids and media for tumor cell growth. After thawing, all PDC lines, except 997537-175-T-J1-PDC and 415267-285-R-J2-PDC, were cultured in Matrigel-coated flasks prepared with a working solution of 1X Ham's F-12 nutrient mix, without supplementation (Thermo Fisher Scientific, cat. 11765054), 100 U/mL penicillin-streptomycin (Thermo Fisher Scientific, cat. 15140122), and 2.5% Matrigel (Corning Inc., Corning, NY, cat. 354248) for the first three passages. The two PDC lines 997537-175-T-J1-PDC and 415267-285-R-J2-PDC were cultured on uncoated flasks. The 857933-349-R-J2-PDC line was cultured in 6C/Colon 1B media containing advanced DMEM/F-12 (Thermo Fisher Scientific, cat. 12634028), 10 mM HEPES (Thermo Fisher Scientific, cat. 15630080), 1X GlutaMAX supplement (Thermo Fisher Scientific, cat. 35050061), 0.1 mg/mL primocin (InvivoGen, San Diego, CA, cat. ant-pm-2), 10% defined fetal bovine serum, heat inactivated (HyClone Laboratories Inc., Logan, UT, cat. SH30070.03HI), 50% L-WRN conditioned media (ATCC, cat. CRL-3276), 1.25 mM N-Acetyl-L-cysteine (Sigma-Aldrich, cat. A9165), 10 mM nicotinamide (Sigma-Aldrich, cat. N0636), 1X B-27 supplement (Thermo Fisher Scientific, cat. 17504044), 1X N-2 supplement (Thermo Fisher Scientific, cat. […]

Broadly, the viability, T/C is the ratio of treated to control. As a reminder, the IC50 is the midpoint of a concentration-inhibition curve.

Several values for one entry are separate records, joined by “and”; a condition that tells them apart may be missing. Identical values can stand only once. A value given as a limit tells only on which side of the number the result lay.
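Further: spheroids exposed to drugs for 7 days.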

`C=CC(=O)N1CCN(c2nc(=O)n(-c3c(C)ccnc3C(C)C)c3nc(-c4c(O)cccc4F)c(F)cc23)C(C)C1` (configuration not stated): the viability, T/C is, setting by setting: (compound 0.0316 µM) 127% and 82.1% and 87.4%; (compound 0.1 µM) 72.6% and 95.5% and 105%; (compound 0.316 µM) 121% and 63.8% and 132%; (compound 1 µM) 101% and 104% and 100%; (compound 3.16 µM) 102% and 93.9% and 110%; (compound 10 µM) 120% and 102% and 100%. For the same compound, the IC50 (curve of compound) is more than 10000 nM.

For the compound `Nc1ccc(C#CCN(C(=O)Cc2ncc(C(F)(F)F)cc2C(F)(F)F)c2ccc(F)cc2)nn1`, the viability, T/C (compound 10 µM) is 94.6% [middle of 13 runs]. In addition, the IC50 (compound alone, run of 11/06/2023) is more than 10000 nM.

As to `COc1ccc([C@@H](O)c2cc(-c3ncnc4cc(N5CCOCC5)ccc34)c(F)cc2Cl)nn1`, the viability, T/C is 115% and 94.1% and 79.4% (compound 0.0316 µM); 91.2% and 92.7% and 91% (compound 0.1 µM); 81.5% and 95.9% and 99.5% (compound 0.316 µM); 49.6% and 78.9% and 67.1% (compound 1 µM); 59.4% and 74.8% and 59% (compound 3.16 µM); 43.6% and 27.3% and 43.8% (compound 10 µM). Further, the IC50 (curve of compound) was 4110 nM and 5570 nM and > 10000 nM.

`O=C(Nc1ccc(O)c(NS(=O)(=O)c2ccc(F)cc2)c1)c1ccc(-c2ccccc2)cc1`: the viability, T/C by setting is: (compound 0.0316 µM) 68.8% and 116% and 90.9%; (compound 0.1 µM) 87.8% and 77.9% and 78.2%; (compound 0.316 µM) 83.3% and 91.7% and 96%; (compound 1 µM) 80.3% and 100% and 96.6%; (compound 3.16 µM) 89.9% and 85.7% and 90.8%; (compound 10 µM) 39% and 46.8% and 25.6%. Also, the IC50 (curve of compound) is 7460 nM and 9190 nM and 6490 nM.

As to `COc1cccc(OCCCN)c1-c1cc(Nc2cnc(C#N)cn2)n[nH]1`, the viability, T/C runs as follows: (compound 0.00316 µM) 75.6% and 100% and 79.2%; (compound 0.01 µM) 60.5% and 80.8% and 75.1%; (compound 0.0316 µM) 14.7% and 28.4% and 65.5%; (compound 0.1 µM) 29.1% and 32.4% and 35.9%; (compound 0.316 µM) 28.6% and 28.5% and 17.2%; (compound 1 µM) 16.6% and 16.5% and 12.6%. For the same compound, the IC50 (curve of compound) is 13.7 nM and 19.7 nM and 57.5 nM.

Take `COc1cc(C2c3cc4c(cc3C(OC3OC5COC(C)OC5C(O)C3O)C3COC(=O)C23)OCO4)cc(OC)c1O` (configuration not stated) + COC1C(OC(N)=O)C(O)C(Oc2ccc3c(O)c(NC(=O)c4ccc(O)c(CC=C(C)C)c4)c(=O)oc3c2C)OC1(C)C: the IC50 runs as follows: (curve of first compound, second compound 0.0316 µM) 690 nM; (curve of first compound, second compound 0.1 µM) 237 nM; (curve of first compound, second compound 0.316 µM) 254 nM; (curve of first compound, second compound 1 µM) 539 nM; (curve of first compound, second compound 3.16 µM) 274 nM; (curve of first compound, second compound 10 µM) 588 nM. For the same compound, the viability, T/C by setting is: (second compound 0.0316 µM, first compound 0.0316 µM) 77.1%; (second compound 0.0316 µM, first compound 0.1 µM) 78.6%; (second compound 0.0316 µM, first compound 0.316 µM) 46%; (second compound 0.0316 µM, first compound 1 µM) 61%; (second compound 0.0316 µM, first compound 3.16 µM) 12.8%; (second compound 0.0316 µM, first compound 10 µM) 6.71%. The viability, T/C is, setting by setting: (second compound 0.1 µM, first compound 0.0316 µM) 95.9%; (second compound 0.1 µM, first compound 0.1 µM) 58.9%; (second compound 0.1 µM, first compound 0.316 µM) 44%; (second compound 0.1 µM, first compound 1 µM) 38.7%; (second compound 0.1 µM, first compound 3.16 µM) 13%; (second compound 0.1 µM, first compound 10 µM) 7.35%. In addition, the viability, T/C was 118% (second compound 0.316 µM, first compound 0.0316 µM); 70.7% (second compound 0.316 µM, first compound 0.1 µM); 40.2% (second compound 0.316 µM, first compound 0.316 µM); 36.7% (second compound 0.316 µM, first compound 1 µM); 14.5% (second compound 0.316 µM, first compound 3.16 µM); 6.69% (second compound 0.316 µM, first compound 10 µM). Further, the viability, T/C was 88.3% (second compound 1 µM, first compound 0.0316 µM); 67.1% (second compound 1 µM, first compound 0.1 µM); 63.5% (second compound 1 µM, first compound 0.316 µM); 41.2% (second compound 1 µM, first compound 1 µM); 18.5% (second compound 1 µM, first compound 3.16 µM); 7.04% (second compound 1 µM, first compound 10 µM). Further, the viability, T/C reads like this: (second compound 3.16 µM, first compound 0.0316 µM) 109%; (second compound 3.16 µM, first compound 0.1 µM) 60.7%; (second compound 3.16 µM, first compound 0.316 µM) 53.2%; (second compound 3.16 µM, first compound 1 µM) 36.3%; (second compound 3.16 µM, first compound 3.16 µM) 10.2%; (second compound 3.16 µM, first compound 10 µM) 7.78%. The viability, T/C is, setting by setting: (second compound 10 µM, first compound 0.0316 µM) 111%; (second compound 10 µM, first compound 0.1 µM) 70.2%; (second compound 10 µM, first compound 0.316 µM) 57.8%; (second compound 10 µM, first compound 1 µM) 52.3%; (second compound 10 µM, first compound 3.16 µM) 14.9%; (second compound 10 µM, first compound 10 µM) 5.69%.
